# Laboratory results from patent US20080109040A1, “METHOD OF TREATING ARRHYTHMIAS” (priority 2002, published 2008).
# “Also recorded” adds a separate entry of the source.
# Tested on: guinea pig ventricular myocytes
# Experiment: Action potential duration, EADs and triggered activity in guinea pig ventricular myocytes
# Conditions: for Reduction of ATX-II-induced prolongation of APD50: ATX-II 10-20 nmol/L; for Attenuation of ATXII-induced prolongation of APD50: ATXII 10-40 nmol/L
# Protocol: Single ventricular myocytes were isolated from the hearts of adult, male guinea pigs (Harlan). In brief, the hearts were perfused with warm (35° C.) and oxygenated solutions in the following order: 1) Tyrode solution containing (in mmol/L) 140 NaCl, 4.6 KCl, 1.8 CaCl2, 1.1 MgSO4, 10 glucose and 5 HEPES, pH 7.4, for 5 minutes; 2) Ca^2+-free solution containing (in mmol/L) 100 NaCl, 30 KCl, 2 MgSO4, 10 glucose, 5 HEPES, 20 taurine, and 5 pyruvate, pH 7.4, for 5 minutes; and 3) Ca^2+-free solution containing sollagenase (120 units/ml) and albumin (2 mg/ml), for 20 minutes. At the end of the perfusion, the ventricles were removed, minced, and gently shaken for 10 minutes in solution #3. Isolated cells were harvested from the cell suspension.
# Myocytes were placed into a recording chamber and superfused with Tyrode solution at 35° C. Drugs were applied via the superfusate. Action potentials were measured using glass microelectrodes filled with a solution containing (in mmol/L) 120 K-aspartate, 20 KCl, 1 MgCl2, 4 Na2ATP, 0.1 Na3GTP, 10 glucose, 1 EGTA and 10 HEPES (pH 7.2). Microelectrode resistance was 1-3 MΩ. An Axopatch-200 amplifier, a DigiData-1200A interface and pCLAMP6 software were used to perform electrophysiological measurements. Action potentials were induced by 5-ms depolarizing pulses applied at various frequencies as indicated. The duration of action potential was measured at 50% (APD50) and 90% (APD90) repolarization.
# 1) Ventricular myocytes were electrically stimulated at a frequency of 0.5, 1 or 2 Hz. Each myocyte was treated with 3, 10 and 30 μmol/L ranolazine. The effect of ranolazine on action potential duration at each pacing frequency was determined from 4 myocytes.
# 2) Action potentials were elicited at a frequency of 0.25 Hz, and the effect of ranolazine (10 μmol/L) on action potential duration was examined in the presence of 5 μmol/L quinidine. Experiments were performed on 4 myocytes.
# Following the procedures and protocols of Example 21, guinea pig ventricular myocytes were electrically stimulated in the presence of ranolazine either alone or in the presence of ATX II [a sea anemone toxin known to mimic LQT3 syndrome by slowing Na^+-channel inactivation from the open state and thereby increasing the peak and late Na^+ current (INa) of cardiomyocytes]. ATXII is known to induce early afterdepolarizations (EADs) and triggered activity and ventricular tachycardia.
# Action potentials were recorded using the whole-cell patch-electrode technique. Ventricular monophasic action potentials and electrograms were recorded from isolated hearts.
# The ventricular APD of guinea pigs isolated myocytes and hearts was measured, respectively, at 50% (APD50) and 90% (MAPD90) repolarization.
# [1] = ranolazine 10 μmol/L, ATX-II plus either E-4031 or 293B
compound,measurement,setting,value
"COc1ccccc1OCC(O)CN1CCN(CC(=O)Nc2c(C)cccc2C)CC1 (racemic) [ranolazine, N-(2,6-dimethylphenyl)-4-[2-hydroxy-3-(2-methoxyphenoxy)propyl]-1-piperazineacetamide]",Reduction of ATX-II-induced prolongation of APD50,ranolazine 0.1 μmol/L,29±1%
same,Reduction of ATX-II-induced prolongation of APD50,ranolazine 0.3 μmol/L,47±1%
same,Reduction of ATX-II-induced prolongation of APD50,ranolazine 1 μmol/L,63±3%
same,Attenuation of ATXII-induced prolongation of APD50,ranolazine 1 μmol/L,60±4%
same,Reduction of ATX-II-induced prolongation of APD50,ranolazine 3 μmol/L,79±1%
same,Attenuation of ATXII-induced prolongation of APD50,ranolazine 3 μmol/L,80±2%
same,Reduction of ATX-II-induced prolongation of APD50,ranolazine 10 μmol/L,86±2%
same,Effect on EADs,[1],completely abolished the EADs
same,Reversal of the prolongation of APD50,[1],about 70%
same,Attenuation of ATXII-induced prolongation of APD50,ranolazine 10 μmol/L,86±2%
same,Suppression of quinidine-induced EADs and triggered activity,"ranolazine 10 μmol/L, quinidine 2.5 μmol/L",effective in suppressing EADs; also recorded: effective in suppressing triggered activity; also recorded: suppressed EADs and TA
same,Effect on quinidine-induced action potential prolongation,"ranolazine 10 μmol/L, quinidine 5 μmol/L, 0.25 Hz",attenuated the effect of quinidine
same,Reduction of ATX-II-induced prolongation of APD50,ranolazine 30 μmol/L,99±1%
same,Attenuation of ATXII-induced prolongation of APD50,ranolazine 30 μmol/L,99±1%
same,Effect on APD50 and APD90,"ranolazine 3, 10, 30 μmol/L, 0.5, 1, 2 Hz",moderate and concentration-dependent shortening
